Source: ChEMBL document CHEMBL1687887, “Evolution of potent and stable placental-growth-factor-1-targeting CovX-bodies from phage display peptide discovery” (J Med Chem, 2011)
pIC50, pKd: −log10 of the molar value. Numbered stars: 1 amine (or outer) side, 2 acyl side, 3 side chain; on linkers, the order of the positions; unused ones are H or OH. Bridge positions count the residues as written; N and C are the ends. Square brackets hold non-standard residues; d marks the D form. Peptide text beside a SMILES is read from it. * marks the point of attachment. X2 = NCCCC[C@H](N[*:1])C(=O)NC(=O)COCC(=O)[*:2]; X1 = O=C(COCC(=O)*)Nc1ccc(CCC(=O)N2CCC2=O)cc1; X3 = O=C(CCc1ccc(N*)cc1)N1CCC1=O; Aad = N[C@@H](CCCC(=O)O)C(=O)O

target: T1, Placenta growth factor (Homo sapiens, UniProt P49763); test: Binding affinity to human PlGF-1; settings: not given
T1 sequence (P49763 whole entry): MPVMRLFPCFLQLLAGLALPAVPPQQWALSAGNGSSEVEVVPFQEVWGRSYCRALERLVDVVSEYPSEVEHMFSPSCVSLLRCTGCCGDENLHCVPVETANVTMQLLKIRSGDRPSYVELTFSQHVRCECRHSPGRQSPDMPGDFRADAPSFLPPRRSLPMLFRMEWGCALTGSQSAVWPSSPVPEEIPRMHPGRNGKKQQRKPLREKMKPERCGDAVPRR

Q: Which Kd does the source give for N=C(N)NCCC[C@@H]1NC(=O)[C@H](CCCCNC(=O)COCC(=O)Nc2ccc(CCC(=O)N3CCC3=O)cc2)NC(=O)[C@@H](Cc2ccccc2)NC(=O)[C@H](CC(=O)O)NC(=O)CNC1=O here?
A: Not Active

same assay, conditions: read-out: Kd

Q: With CC(=O)NCCCC[C@@H]1NC(=O)[C@@H](NC(=O)[C@@H](NC(=O)[C@H](CC(=O)O)NC(=O)[C@H](Cc2ccccc2)NC(C)=O)C(C)C)CSSC[C@@H](C(=O)N[C@@H](CCCCNC(C)=O)C(=O)N[C@H](C(=O)N[C@@H](CCCCN)C(=O)NC(=O)COCC(=O)Nc2ccc(CCC(=O)N3CCC3=O)cc2)C(C)C)NC(=O)[C@H](Cc2cnc[nH]2)NC(=O)[C@@H]2CCCN2C(=O)[C@H](CC(C)C)NC(=O)[C@H]([C@@H](C)O)NC(=O)[C@H](C(C)C)NC(=O)[C@H](Cc2c[nH]c3ccccc23)NC1=O (Ac-FDVCK(Ac)WVTLPHCK(Ac)V[X2]-X3; disulfide 4-12) as the compound, how does the pKd read?
A: 8.10

Q: How did the pKd turn out when CC(=O)NCCCC[C@H](NC(=O)[C@@H]1CSSC[C@H](NC(=O)[C@@H](NC(=O)[C@H](CC(=O)O)NC(=O)[C@H](Cc2ccccc2)NC(C)=O)C(C)C)C(=O)N[C@@H](CC(N)=O)C(=O)N[C@@H](Cc2c[nH]c3ccccc23)C(=O)N[C@@H](C(C)C)C(=O)N[C@@H]([C@@H](C)O)C(=O)N[C@@H](CC(C)C)C(=O)N2CCC[C@H]2C(=O)N[C@@H](Cc2cnc[nH]2)C(=O)N1)C(=O)N[C@H](C(=O)N[C@@H](CCCCN)C(=O)NC(=O)COCC(=O)Nc1ccc(CCC(=O)N2CCC2=O)cc1)C(C)C (Ac-FDVCNWVTLPHCK(Ac)V[X2]-X3; disulfide 4-12) was run?
A: 8.30

Q: With CSCC[C@H](NC(=O)[C@@H](NC(=O)[C@H](CCCCNC(C)=O)NC(=O)[C@@H]1CSSC[C@H](NC(=O)[C@@H](NC(=O)[C@H](CCCCNC(=O)COCC(=O)Nc2ccc(CCC(=O)N3CCC3=O)cc2)NC(=O)[C@H](Cc2ccccc2)NC(C)=O)C(C)C)C(=O)N[C@@H](CC(N)=O)C(=O)N[C@@H](Cc2c[nH]c3ccccc23)C(=O)N[C@@H](C(C)C)C(=O)N[C@@H]([C@@H](C)O)C(=O)N[C@@H](CC(C)C)C(=O)N2CCC[C@H]2C(=O)N[C@@H](Cc2cnc[nH]2)C(=O)N1)C(C)C)C(N)=O (Ac-FK(X1)VCNWVTLPHCK(Ac)VM-NH2; disulfide 4-12) as the compound, how does the pKd read?
A: < 6.00

Q: With CSCC[C@H](NC(=O)[C@@H](NC(=O)[C@H](CCCCNC(C)=O)NC(=O)[C@@H]1CSSC[C@H](NC(=O)[C@@H](NC(=O)[C@H](CC(=O)O)NC(=O)[C@H](CCCCNC(=O)COCC(=O)Nc2ccc(CCC(=O)N3CCC3=O)cc2)NC(C)=O)C(C)C)C(=O)N[C@@H](CC(N)=O)C(=O)N[C@@H](Cc2c[nH]c3ccccc23)C(=O)N[C@@H](C(C)C)C(=O)N[C@@H]([C@@H](C)O)C(=O)N[C@@H](CC(C)C)C(=O)N2CCC[C@H]2C(=O)N[C@@H](Cc2cnc[nH]2)C(=O)N1)C(C)C)C(N)=O (Ac-K(X1)DVCNWVTLPHCK(Ac)VM-NH2; disulfide 4-12) as the compound, how does the pKd read?
A: < 6.00

Q: With CSCC[C@H](NC(=O)[C@@H](NC(=O)[C@H](CCCCNC(C)=O)NC(=O)[C@@H]1CSSC[C@H](NC(=O)[C@@H](NC(=O)[C@H](CC(=O)O)NC(=O)[C@H](Cc2ccccc2)NC(=O)COCC(=O)Nc2ccc(CCC(=O)N3CCC3=O)cc2)C(C)C)C(=O)N[C@@H](CC(N)=O)C(=O)N[C@@H](Cc2c[nH]c3ccccc23)C(=O)N[C@@H](C(C)C)C(=O)N[C@@H]([C@@H](C)O)C(=O)N[C@@H](CC(C)C)C(=O)N2CCC[C@H]2C(=O)N[C@@H](Cc2cnc[nH]2)C(=O)N1)C(C)C)C(N)=O (X1-FDVCNWVTLPHCK(Ac)VM-NH2; disulfide 4-12) as the compound, how does the pKd read?
A: < 6.00

target: T1, Placenta growth factor; test: Inhibition of human PlGF-1-VEGFR-1 interaction by ELISA; settings: not given

Q: How did the pIC50 turn out when CSCC[C@H](NC(=O)[C@@H](NC(=O)[C@H](CCCCN)NC(=O)[C@@H]1CSSC[C@H](NC(=O)[C@@H](NC(=O)[C@H](CC(=O)O)NC(=O)[C@H](Cc2ccccc2)NC(C)=O)C(C)C)C(=O)N[C@@H](CCCCN)C(=O)N[C@@H](Cc2c[nH]c3ccccc23)C(=O)N[C@@H](C(C)C)C(=O)NCC(=O)N[C@@H](CC(C)C)C(=O)N2CCC[C@H]2C(=O)N[C@@H](Cc2cnc[nH]2)C(=O)N1)C(C)C)C(N)=O (Ac-FDVCKWVGLPHCKVM-NH2; disulfide 4-12) was run?
A: 5.22

Q: With CSCC[C@H](NC(=O)[C@H](CCCCN)NC(=O)[C@@H]1CSSC[C@H](NC(=O)[C@@H](NC(=O)[C@H](CC(=O)O)NC(=O)[C@H](Cc2ccccc2)NC(C)=O)C(C)C)C(=O)N[C@@H](CCCCN)C(=O)N[C@@H](Cc2c[nH]c3ccccc23)C(=O)N[C@@H](C(C)C)C(=O)N[C@@H]([C@@H](C)O)C(=O)N[C@@H](CC(C)C)C(=O)N2CCC[C@H]2C(=O)N[C@@H](Cc2cnc[nH]2)C(=O)N1)C(=O)N[C@@H](CCCC(N)=O)C(N)=O (Ac-FDVCKWVTLPHCKM[Aad](NH2)-NH2; disulfide 4-12) as the compound, how does the pIC50 read?
A: 6.00

Q: How did the pIC50 turn out when CSCC[C@H](NC(=O)[C@@H](NC(=O)[C@H](CCCNC(=N)N)NC(=O)[C@@H]1CSSC[C@H](NC(=O)[C@@H](NC(=O)[C@H](CC(=O)O)NC(=O)[C@H](Cc2ccccc2)NC(C)=O)C(C)C)C(=O)N[C@@H](CCCCN)C(=O)N[C@@H](Cc2c[nH]c3ccccc23)C(=O)N[C@@H](C(C)C)C(=O)N[C@@H]([C@@H](C)O)C(=O)N[C@@H](CC(C)C)C(=O)N2CCC[C@H]2C(=O)N[C@@H](Cc2cnc[nH]2)C(=O)N1)C(C)C)C(N)=O (Ac-FDVCKWVTLPHCRVM-NH2; disulfide 4-12) was run?
A: 5.30

Q: With CSCC[C@H](NC(=O)[C@@H](NC(=O)[C@H](CCCN=C(N)N)NC(=O)[C@@H]1CSSC[C@H](NC(=O)[C@@H](NC(=O)[C@H](CC(=O)O)NC(=O)[C@H](Cc2ccccc2)NC(C)=O)C(C)C)C(=O)N[C@@H](CC(N)=O)C(=O)N[C@@H](Cc2c[nH]c3ccccc23)C(=O)N[C@@H](C(C)C)C(=O)NCC(=O)N[C@@H](CC(C)C)C(=O)N[C@@H](C)C(=O)N[C@@H](Cc2cnc[nH]2)C(=O)N1)C(C)C)C(N)=O (Ac-FDVCNWVGLAHCRVM-NH2; disulfide 4-12) as the compound, how does the pIC50 read?
A: 5.30

Q: How did the pIC50 turn out when CSCC[C@H](NC(=O)[C@@H](NC(=O)[C@H](CCCNC(=N)N)NC(=O)[C@@H]1CSSC[C@H](NC(=O)[C@@H](NC(=O)[C@H](CC(=O)O)NC(=O)[C@H](Cc2ccccc2)NC(C)=O)C(C)C)C(=O)N[C@@H](CC(N)=O)C(=O)N[C@@H](Cc2c[nH]c3ccccc23)C(=O)N[C@@H](C(C)C)C(=O)NCC(=O)N[C@@H](CC(C)C)C(=O)N2CCC[C@H]2C(=O)N[C@@H](Cc2cnc[nH]2)C(=O)N1)C(C)C)C(N)=O (Ac-FDVCNWVGLPHCRVM-NH2; disulfide 4-12) was run?
A: 5.05

Q: With CSCC[C@H](NC(=O)[C@H](CCCCN)NC(=O)[C@@H]1CSSC[C@H](NC(=O)[C@@H](NC(=O)[C@H](CC(=O)O)NC(=O)[C@H](Cc2ccccc2)NC(C)=O)C(C)C)C(=O)N[C@@H](CC(N)=O)C(=O)N[C@@H](Cc2c[nH]c3ccccc23)C(=O)N[C@@H](C(C)C)C(=O)N[C@@H]([C@@H](C)O)C(=O)N[C@@H](CC(C)C)C(=O)N2CCC[C@H]2C(=O)N[C@@H](Cc2cnc[nH]2)C(=O)N1)C(=O)N[C@@H](CCCC(N)=O)C(N)=O (Ac-FDVCNWVTLPHCKM[Aad](NH2)-NH2; disulfide 4-12) as the compound, how does the pIC50 read?
A: 6.00

Q: With CSCC[C@H](NC(=O)[C@@H](NC(=O)[C@H](CCCCN)NC(=O)[C@@H]1CSSC[C@H](NC(=O)[C@@H](NC(=O)[C@H](CC(=O)O)NC(=O)[C@H](Cc2ccccc2)NC(C)=O)C(C)C)C(=O)N[C@@H](CC(N)=O)C(=O)N[C@@H](Cc2c[nH]c3ccccc23)C(=O)N[C@@H](C(C)C)C(=O)N[C@@H]([C@@H](C)O)C(=O)N[C@@H](CC(C)C)C(=O)N2CCC[C@H]2C(=O)N[C@@H](Cc2cnc[nH]2)C(=O)N1)C(C)C)C(N)=O (Ac-FDVCNWVTLPHCKVM-NH2; disulfide 4-12) as the compound, how does the pIC50 read?
A: 6.00
